Here are results for six compounds from paper PMC10866072, “Design, synthesis, molecular modelling and biological evaluation of novel 6-amino-5-cyano-2-thiopyrimidine derivatives as potent anticancer agents against leukemia and apoptotic inducers” (Journal of Enzyme Inhibition and Medicinal Chemistry, 2024).

For one data set, the system named is EGFRWT. Also on record: method as in PMID 32959865. The settings on record: cited from earlier work.
The subject of the next data set is mutant EGFRT790M. Also on record: method as in PMID 32959865. The conditions noted are these: cited from earlier work.
A further data set has as its system caspase-3 in HepG-2. On the set-up: method as in PMID 32959865. The settings on record: cited from earlier work.
Data set [1] deals with HCT-116, HepG-2, MCF-7, and A549 cells. On the set-up: method as in PMID 32959865. The conditions noted are these: cited from earlier work.
Another data set has as its system tumour cell lines. Also on record: method as in PMID 32027179. The settings on record: broad spectrum antitumor activity, cited from earlier work.
The test system of the next data set is SW480. Also on record: method as in PMID 32645482. The conditions noted are these: cited from earlier work.
The subject of a further data set is MGC-803 cell line. Also on record: method as in PMID 27771599. The conditions noted are these: cited from earlier work.
The next data set deals with GES1. Also on record: method as in PMID 27771599. The settings on record: cited from earlier work.
In a further data set the test system is A549. On the set-up: method as in PMID 31525523. The settings on record: cited from earlier work.
A further data set has as its system HeLa. Also on record: method as in PMID 31525523. The settings on record: cited from earlier work.
Data set [2] in a line: MTT cytotoxicity on normal cells. It is filed as cell-based. The settings on record: human, WI-38 cells (normal lung fibroblasts), WI-38 normal cells, mean ± SD of three experiments, read-out: IC50 (cytotoxic activity). As to the method: The American Type Culture Collection provided WI-38 cells (normal lung cells). The cells were grown in DMEM with 10% heat-inactivated FBS (Hyclone), 10 µg/ml of insulin (Sigma), and 1% penicillin-streptomycin. The remaining chemicals and reagents were all from Sigma or Invitrogen. The MTT test was used to evaluate cytotoxicity, as described previously. Graph pad Prism software (San Diego, CA) was used to estimate the 50% inhibitory concentration (IC50) from dose response curve graphic plots for each conc.

SMILES strings stand for the structures.

The IC50 is the concentration that inhibits the measured activity by half. Regarding `CCCCSC1=NC(c2ccccc2)=C(C#N)C(Nc2ccccn2)N1` (stereo not drawn) [Compound XIV], the values for the half-maximal inhibitory concentration (IC50) with EGFRWT and with mutant EGFRT790M were 0.09 µM and 4.03 µM, respectively. For the same compound, the “increase of caspase-3 level compared to the control” value in the data set with caspase-3 in HepG-2 is 6.5 times. The “activity relative to erlotinib” value in data set [1] is 4.5- to 8.4 fold.
By GI50 is commonly meant the concentration giving 50% growth inhibition. Take `N#CC1=C(c2ccc(F)cc2)N=C(N/N=C/c2c[nH]c3ccccc23)NC1N1CCOCC1` (stereo not drawn) [Compound XVII]: the “TGI (total growth inhibition)” value with tumour cell lines is 28.66 µM. Besides, the concentration for 50% growth inhibition (GI50) in the data set on tumour cell lines (read-out: GI50 (median growth inhibition)) was 6.15 µM.
For the compound `NC1=NC(NC(=O)Nc2ccc(Cl)c(C(F)(F)F)c2)=CC(c2ccccc2)N1` (stereo not drawn) [XIX], the IC50 in the data set on SW480 was 11.1 µM.
For the compound `C/C(=N\Nc1nc(Sc2ccccc2)nc2c1nnn2-c1ccccc1)c1ccccc1O` [XXII], the 50% inhibitory concentration (IC50) in the data set with MGC-803 cell line was 0.87 µM; with GES1, 56.2 µM.
With `COc1cc(C2=NC3N=C(C)C(C(C)=O)C(c4ccc([N+](=O)[O-])cc4)N3N2)cc(OC)c1OC` (stereo not drawn) [XXI], the IC50 was 1.02 µM in the data set on A549 and 0.75 µM with HeLa.
With `C#Cc1cccc(Nc2ncnc3cc(OCCOC)c(OCCOC)cc23)c1` [erlotinib], the IC50 in [2] was 22.8 ± 0.65 µM.
